Reference: ChEMBL document CHEMBL6096719, “Kidney Targeting Smart Antibiotic Discovery: Multimechanism Pleuromutilins for Pyelonephritis Therapy” (J Med Chem, 2025)
Active and inactive are the calls of the source. The rule behind the calls is not given here.

Columns and labels:
[1] = test system: Staphylococcus epidermidis; test: Antibacterial activity against methicillin-resistant Staphylococcus epidermidis ATCC 51625 assessed as inhibition of bacterial growth incubated for 24 hrs by broth microdilution method; assay type: functional
Escherichia coli [2] = test: Antibacterial activity against Escherichia coli ATCC 25922 assessed as inhibition of bacterial growth incubated for 24 hrs by broth microdilution method; assay type: functional
Staphylococcus aureus [3] = test: Antibacterial activity against methicillin-resistant Staphylococcus aureus 222 assessed as inhibition of bacterial growth incubated for 24 hrs by broth microdilution method; assay type: functional
Staphylococcus aureus [4] = test: Antibacterial activity against methicillin-resistant Staphylococcus aureus 596 assessed as inhibition of bacterial growth incubated for 24 hrs by broth microdilution method; assay type: functional
Enterococcus = test: Antibacterial activity against vancomycin-resistant Enterococcus 80 assessed as inhibition of bacterial growth incubated for 24 hrs by broth microdilution method; assay type: functional
[5] = Cytotoxicity against human A549 cells assessed as reduction in cell viability incubated for 24 hrs by CCK8 assay; assay type: toxicity, cell-based
[6] = test system: Mesomycoplasma hyopneumoniae; test: Anti-mycoplasma activity against Mycoplasma hyopneumoniae J NCTC10110 assessed as inhibition of bacterial growth incubated for 6 to 7 days by broth microdilution method; assay type: functional; conditions: time 6-7 day
[7] = test system: Mesomycoplasma hyopneumoniae; test: Anti-mycoplasma activity against Mycoplasma hyopneumoniae MH-LH assessed as inhibition of bacterial growth incubated for 6 to 7 days by broth microdilution method; assay type: functional; conditions: time 6-7 day
[8] = test system: Mycoplasmoides gallisepticum; test: Anti-mycoplasma activity against Mycoplasma gallisepticum NCTC10115 assessed as inhibition of bacterial growth incubated for 3 to 5 days by broth microdilution method; assay type: functional; conditions: time 3-5 day
Mycoplasma genitalium = test: Anti-mycoplasma activity against Mycoplasma genitalium G37 ATCC33530 assessed as inhibition of bacterial growth incubated for 7 to 14 days by broth microdilution method; assay type: functional; conditions: Mycoplasmoides genitalium, time 7-14 day
Staphylococcus aureus [9] = test: Antibiofilm activity against methicillin-resistant Staphylococcus aureus ATCC33591 assessed as disruption of preformed biofilms at 0.5 ug/ml incubated for 24 hrs with preformed biofilms by crystal violet staining based analysis; assay type: functional; conditions: dose 0.5 µg/ml
Staphylococcus aureus [10] = test: Antibiofilm activity against methicillin-resistant Staphylococcus aureus ATCC33591 assessed as eradication of biofilms at 0.5 ug/ml incubated for 4 hrs by field emission scanning electron microscopy; assay type: functional, organism-based; conditions: dose 0.5 µg/ml
Escherichia coli [11] = test: Antibiofilm activity against Escherichia coli ATCC25922 assessed as eradication of biofilms at 0.5 ug/ml incubated for 4 hrs by field emission scanning electron microscopy; assay type: functional, organism-based; conditions: dose 0.5 µg/ml
Cell membrane [12] = test: Disruption of cell membrane in methicillin-resistant Staphylococcus aureus ATCC33591 assessed as induction of cell death by measuring increase in propidium iodide fluorescence intensity at 0.5 ug/ml incubated for 2 hrs by bright field microscopy; assay type: subcellular; conditions: dose 0.5 µg/ml
Cell membrane [13] = test: Disruption of cell membrane in Escherichia coli ATCC25922 assessed as induction of cell death by measuring increase in propidium iodide fluorescence intensity at 0.5 ug/ml incubated for 2 hrs by bright field microscopy; assay type: subcellular; conditions: dose 0.5 µg/ml
Cell membrane [14] = test: Disruption of cell membrane in Escherichia coli ATCC25922 assessed as decrease in intracellular pH at 0.125 ug/ml incubated for 30 mins by cFDA-SE probe based fluorescence analysis; conditions: dose 0.125 µg/ml
Cell membrane [15] = test: Disruption of cell membrane in methicillin-resistant Staphylococcus aureus ATCC33591 assessed as dissipation of membrane potential at 0.125 to 0.5 ug/ml incubated for 30 mins by DiBAC4(3) probe based fluorescence spectrophotometry; conditions: dose 0.125-0.5 µg/ml
Cell membrane [16] = test: Disruption of cell membrane in Escherichia coli ATCC25922 assessed as dissipation of membrane potential at 0.125 to 0.5 ug/ml incubated for 30 mins by DiBAC4(3) probe based fluorescence spectrophotometry; conditions: dose 0.125-0.5 µg/ml
Staphylococcus aureus [17] = test: Antibacterial activity against methicillin-resistant Staphylococcus aureus ATCC33591 infected in systemic intraperitoneal infection Kunming mouse model assessed as decrease in inflammation, neutrophil infiltration and disordered spleen structure at 5 mg/kg, ip treated at 1 hr post-infection and measured after 7 days by Hematoxylin-Eosin staining based analysis; assay type: functional, organism-based; conditions: time 7.0 day
Staphylococcus aureus [18] = test: Antibacterial activity against methicillin-resistant Staphylococcus aureus ATCC33591 infected in systemic intraperitoneal infection Kunming mouse model assessed as decrease in bacterial colonies in kidneys administered intraperitoneally at 1 hr post-infection and measured after 7 days; assay type: functional, organism-based; conditions: dose 5-20 mg/kg, route ip, time 7.0 day
[19] = target: T1, Solute carrier family 22 member 2 (Homo sapiens, UniProt O15244); test: Substrate activity at human OCT2 transfected in HEK293 cells assessed as increase in intracellular drug content at 100 uM measured after 5 mins; assay type: ADME, cell-based; conditions: hek293, 5 min
T1 sequence (O15244 whole entry): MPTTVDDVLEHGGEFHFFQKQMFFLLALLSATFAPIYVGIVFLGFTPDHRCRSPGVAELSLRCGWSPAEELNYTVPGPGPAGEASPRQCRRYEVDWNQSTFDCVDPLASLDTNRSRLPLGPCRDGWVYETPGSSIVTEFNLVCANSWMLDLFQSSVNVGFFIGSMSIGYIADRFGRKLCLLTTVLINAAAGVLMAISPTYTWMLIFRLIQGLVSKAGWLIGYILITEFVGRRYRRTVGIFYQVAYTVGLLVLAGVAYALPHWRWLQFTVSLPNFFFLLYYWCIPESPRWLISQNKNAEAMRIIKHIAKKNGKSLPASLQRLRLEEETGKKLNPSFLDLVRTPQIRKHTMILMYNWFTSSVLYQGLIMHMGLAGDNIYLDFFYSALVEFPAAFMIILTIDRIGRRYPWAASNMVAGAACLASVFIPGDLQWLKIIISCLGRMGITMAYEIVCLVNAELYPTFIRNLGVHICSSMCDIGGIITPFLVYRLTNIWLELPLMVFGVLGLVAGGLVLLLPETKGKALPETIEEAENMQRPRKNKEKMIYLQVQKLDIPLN

[20] = Tmax in Sprague-Dawley rat at 5 mg/kg, iv; assay type: ADME, organism-based; conditions: in vivo
[21] = AUC (0 to 24 hrs) in Sprague-Dawley rat at 5 mg/kg, iv; assay type: ADME, organism-based; conditions: in vivo
[22] = Observed AUC (0 to infinity) in Sprague-Dawley rat at 5 mg/kg, iv; assay type: ADME, organism-based; conditions: in vivo
[23] = Observed MRT (0 to infinity) in Sprague-Dawley rat at 5 mg/kg, iv; assay type: ADME, organism-based; conditions: in vivo
[24] = Observed apparent volume of distribution in Sprague-Dawley rat at 5 mg/kg, iv; assay type: ADME, organism-based; conditions: in vivo, read-out: Vz
[25] = Observed AUC (0 to infinity) in Sprague-Dawley rat at 10 mg/kg, po; assay type: ADME, organism-based; conditions: in vivo
[26] = Drug uptake in Sprague-Dawley rat liver at 5 mg/kg, iv measured for 6 hrs by LC-MS/MS analysis; assay type: ADME, organism-based; conditions: in vivo
Escherichia coli [27] = test: Antibacterial activity against Escherichia coli ATCC25922 infected in pyelonephritis C57BL/6 mouse model assessed as decrease in inflammatory cell infiltration in kidney at 3 to 10 mg/kg, iv qd for 3 days administered at 2 days post-infection by Hematoxylin-Eosin staining based analysis; assay type: functional, organism-based; conditions: dose 3-10 mg/kg, time 3.0 day
Escherichia coli [28] = test: Antibacterial activity against Escherichia coli ATCC25922 infected in pyelonephritis C57BL/6 mouse model assessed as recovery of neutrophils count in blood at 3 to 10 mg/kg, iv qd for 3 days administered at 2 days post-infection; assay type: functional, organism-based; conditions: dose 3-10 mg/kg, time 3.0 day

C=C[C@]1(C)C[C@@H](OC(=O)CSc2nc3cc[n+](Cc4ccc(C)cc4)cc3[nH]2)[C@]2(C)[C@H](C)CC[C@]3(CCC(=O)[C@H]32)[C@@H](C)[C@@H]1O.[Br-]
MIC [1]: < 1 µg/mL
MIC (Escherichia coli [2]): < 1 µg/mL
MIC (Staphylococcus aureus [3]): 4 µg/mL
MIC (Staphylococcus aureus [4]): 2 µg/mL
MIC (Enterococcus): 4 µg/mL
CC50 at 24 h [5]: > 100 µM
MIC [6]: < 0.04 µg/mL
MIC [7]: < 0.04 µg/mL
MIC [8]: < 0.04 µg/mL
MIC (Mycoplasma genitalium): < 0.04 µg/mL
Activity (Staphylococcus aureus [9]): 84.31%
Activity (Staphylococcus aureus [10]): Active; Almost Complete Eradication Of Bacteria Observed
Activity (Escherichia coli [11]): Active; Almost Complete Eradication Of Bacteria Observed
Activity (Cell membrane [12]): Active
Activity (Cell membrane [13]): Active
Activity (Cell membrane [14]): Active
Activity (Cell membrane [15]): Active
Activity (Cell membrane [16]): Active
Activity (Staphylococcus aureus [17]): Active; Nearly Restoration Of Normal Histology Observed
Activity (Staphylococcus aureus [18]): Active; Superior Efficacy Compared To Valnemulin Observed
Activity [19]: Active
Tmax [20]: 1.8 min
AUC(0-t) [21]: 16200 ng·h/mL
AUC(0-inf) [22]: 16500 ng·h/mL
MRT inf [23]: 68.4 min
Vd [24]: 0.511 L/kg
AUC(0-inf) [25]: 15800 ng·h/mL
Drug uptake [26]: Active
Activity (Escherichia coli [27]): Active
Activity (Escherichia coli [28]): Active
